Key:
Type in all cases: functional
KM12 = assay: Growth inhibition of human KM12 cells incubated for 48 hrs by sulforhodamine B assay; conditions: KM12, 48 h
SK-OV-3 = assay: Growth inhibition of human SKOV3 cells incubated for 48 hrs by sulforhodamine B assay; conditions: SK-OV-3, 48 h
NCI-H460 = assay: Growth inhibition of human NCI-H460 cells incubated for 48 hrs by sulforhodamine B assay; conditions: NCI-H460, 48 h
Hs-578T = assay: Growth inhibition of human Hs 578T cells incubated for 48 hrs by sulforhodamine B assay
SF-539 = assay: Growth inhibition of human SF539 cells incubated for 48 hrs by sulforhodamine B assay; conditions: SF-539, 48 h
U-251 = assay: Growth inhibition of human U251 cells incubated for 48 hrs by sulforhodamine B assay; conditions: U-251, 48 h
OVCAR-8 = assay: Growth inhibition of human OVCAR8 cells incubated for 48 hrs by sulforhodamine B assay; conditions: OVCAR-8, 48 h
M14 = assay: Growth inhibition of human M14 cells incubated for 48 hrs by sulforhodamine B assay; conditions: M14, 48 h
OVCAR-5 = assay: Growth inhibition of human OVCAR5 cells incubated for 48 hrs by sulforhodamine B assay; conditions: OVCAR-5, 48 h
SK-MEL-5 = assay: Growth inhibition of human SK-MEL-5 cells incubated for 48 hrs by sulforhodamine B assay; conditions: SK-MEL-5, 48 h
SR = assay: Growth inhibition of human SR cells incubated for 48 hrs by sulforhodamine B assay
COLO 205 = assay: Growth inhibition of human COLO205 cells incubated for 48 hrs by sulforhodamine B assay; conditions: COLO 205, 48 h
SW-620 = assay: Growth inhibition of human SW620 cells incubated for 48 hrs by sulforhodamine B assay; conditions: SW-620, 48 h
SNB-19 = assay: Growth inhibition of human SNB19 cells incubated for 48 hrs by sulforhodamine B assay; conditions: SNB-19, 48 h
UACC-62 = assay: Growth inhibition of human UACC62 cells incubated for 48 hrs by sulforhodamine B assay; conditions: UACC-62, 48 h
T47D = assay: Growth inhibition of human T47D cells incubated for 48 hrs by sulforhodamine B assay
CCRF-CEM = assay: Growth inhibition of human CCRF-CEM cells incubated for 48 hrs by sulforhodamine B assay
HOP-62 = assay: Growth inhibition of human HOP62 cells incubated for 48 hrs by sulforhodamine B assay; conditions: HOP-62, 48 h
RPMI-8226 = assay: Growth inhibition of human RPMI8226 cells incubated for 48 hrs by sulforhodamine B assay; conditions: RPMI-8226, 48 h
A498 = assay: Growth inhibition of human A498 cells incubated for 48 hrs by sulforhodamine B assay; conditions: A498, 48 h
ACHN = assay: Growth inhibition of human ACHN cells incubated for 48 hrs by sulforhodamine B assay
SNB-75 = assay: Growth inhibition of human SNB75 cells incubated for 48 hrs by sulforhodamine B assay; conditions: SNB-75, 48 h
786-0 = assay: Growth inhibition of human 786-0 cells incubated for 48 hrs by sulforhodamine B assay; conditions: 786-0, 48 h
BT-549 = assay: Growth inhibition of human BT549 cells incubated for 48 hrs by sulforhodamine B assay; conditions: BT-549, 48 h
HL-60(TB) = assay: Growth inhibition of human HL-60(TB) cells incubated for 48 hrs by sulforhodamine B assay; conditions: HL-60, 48 h
HCT-116 = assay: Growth inhibition of human HCT116 cells incubated for 48 hrs by sulforhodamine B assay; conditions: HCT-116, 48 h
DU-145 = assay: Growth inhibition of human DU145 cells incubated for 48 hrs by sulforhodamine B assay; conditions: DU-145, 48 h
NCI-H522 = assay: Growth inhibition of human NCI-H522 cells incubated for 48 hrs by sulforhodamine B assay; conditions: NCI-H522, 48 h
MOLT-4 = assay: Growth inhibition of human MOLT4 cells incubated for 48 hrs by sulforhodamine B assay; conditions: MOLT-4, 48 h
NCI-H23 = assay: Growth inhibition of human NCI-H23 cells incubated for 48 hrs by sulforhodamine B assay; conditions: NCI-H23, 48 h
UACC-257 = assay: Growth inhibition of human UACC257 cells incubated for 48 hrs by sulforhodamine B assay; conditions: UACC-257, 48 h
SK-MEL-2 = assay: Growth inhibition of human SK-MEL-2 cells incubated for 48 hrs by sulforhodamine B assay; conditions: SK-MEL-2, 48 h
IGROV-1 = assay: Growth inhibition of human IGROV1 cells incubated for 48 hrs by sulforhodamine B assay; conditions: IGROV-1, 48 h
SK-MEL-28 = assay: Growth inhibition of human SK-MEL-28 cells incubated for 48 hrs by sulforhodamine B assay; conditions: SK-MEL-28, 48 h
LOX IMVI = assay: Growth inhibition of human LOXIMVI cells incubated for 48 hrs by sulforhodamine B assay
NCI-H322M = assay: Growth inhibition of human NCI-H322M cells incubated for 48 hrs by sulforhodamine B assay
CAKI-1 = assay: Growth inhibition of human Caki1 cells incubated for 48 hrs by sulforhodamine B assay; conditions: CAKI-1, 48 h
HT-29 = assay: Growth inhibition of human HT-29 cells incubated for 48 hrs by sulforhodamine B assay; conditions: HT-29, 48 h
A549 = assay: Growth inhibition of human A549/ATCC cells incubated for 48 hrs by sulforhodamine B assay; conditions: A549, 48 h
HCT-15 = assay: Growth inhibition of human HCT15 cells incubated for 48 hrs by sulforhodamine B assay; conditions: HCT-15, 48 h
MDA-MB-231 = assay: Growth inhibition of human MDA-MB-231 cells incubated for 48 hrs by sulforhodamine B assay; conditions: MDA-MB-231, 48 h
OVCAR-3 = assay: Growth inhibition of human OVCAR3 cells incubated for 48 hrs by sulforhodamine B assay; conditions: OVCAR-3, 48 h
NCI-H226 = assay: Growth inhibition of human NCI-H226 cells incubated for 48 hrs by sulforhodamine B assay; conditions: NCI-H226, 48 h
PC-3 = assay: Growth inhibition of human PC3 cells incubated for 48 hrs by sulforhodamine B assay; conditions: PC-3, 48 h
MDA-MB-468 = assay: Growth inhibition of human MDA-MB-468 cells incubated for 48 hrs by sulforhodamine B assay; conditions: MDA-MB-468, 48 h
OVCAR-4 = assay: Growth inhibition of human OVCAR4 cells incubated for 48 hrs by sulforhodamine B assay; conditions: OVCAR-4, 48 h
Malme-3M = assay: Growth inhibition of human MALME-3M cells incubated for 48 hrs by sulforhodamine B assay
SF-268 = assay: Growth inhibition of human SF268 cells incubated for 48 hrs by sulforhodamine B assay; conditions: SF-268, 48 h
SF-295 = assay: Growth inhibition of human SF295 cells incubated for 48 hrs by sulforhodamine B assay; conditions: SF-295, 48 h
SN12C = assay: Growth inhibition of human SN12C cells incubated for 48 hrs by sulforhodamine B assay
UO-31 = assay: Growth inhibition of human UO31 cells incubated for 48 hrs by sulforhodamine B assay; conditions: UO-31, 48 h
MDA-MB-435 = assay: Growth inhibition of human MDA-MB-435 cells incubated for 48 hrs by sulforhodamine B assay; conditions: MDA-MB-435, 48 h
RXF 393 = assay: Growth inhibition of human RXF393 cells incubated for 48 hrs by sulforhodamine B assay; conditions: RXF 393, 48 h
TK-10 = assay: Growth inhibition of human TK10 cells incubated for 48 hrs by sulforhodamine B assay; conditions: TK-10, 48 h
EKVX = assay: Growth inhibition of human EKVX cells incubated for 48 hrs by sulforhodamine B assay

## CNC(=O)c1cc(Oc2ccc(NC(=O)Nc3ccc(Cl)c(C(F)(F)F)c3)cc2)ccn1 [SORAFENIB]
KM12
  TGI: 2.51 µM
SK-OV-3
  TGI: 5.01 µM
NCI-H460
  TGI: 5.01 µM
Hs-578T
  TGI: 3.98 µM
SF-539
  TGI: 2.51 µM
U-251
  GI50: 2 µM
  TGI: 3.16 µM
OVCAR-8
  GI50: 3.16 µM
  TGI: 12.6 µM
M14
  GI50: 2 µM
  TGI: 3.16 µM
OVCAR-5
  TGI: 6.31 µM
SK-MEL-5
  TGI: 2.51 µM
SR
  TGI: 63.1 µM
COLO 205
  GI50: 2 µM
  TGI: 3.16 µM
SW-620
  TGI: 5.01 µM
SNB-19
  TGI: 3.98 µM
UACC-62
  TGI: 2.51 µM
T47D
  TGI: 5.01 µM
CCRF-CEM
  GI50: 2 µM
  TGI: 5.01 µM
HOP-62
  GI50: 2 µM
  TGI: 3.16 µM
RPMI-8226
  TGI: 3.16 µM
A498
  TGI: 3.16 µM
ACHN
  TGI: 10 µM
SNB-75
  TGI: 3.98 µM
786-0
  TGI: 5.01 µM
BT-549
  TGI: 3.98 µM
HL-60(TB)
  TGI: 100 µM
HCT-116
  TGI: 2.51 µM
DU-145
  TGI: 7.94 µM
NCI-H522
  GI50: 2 µM
  TGI: 5.01 µM
MOLT-4
  TGI: 100 µM
NCI-H23
  GI50: 2 µM
UACC-257
  GI50: 2 µM
SK-MEL-2
  GI50: 2 µM
  TGI: 6.31 µM
IGROV-1
  TGI: 10 µM
SK-MEL-28
  TGI: 2.51 µM
LOX IMVI
  TGI: 2.51 µM
NCI-H322M
  TGI: 5.01 µM
CAKI-1
  TGI: 12.6 µM
HT-29
  GI50: 2 µM
  TGI: 5.01 µM
A549
  TGI: 7.94 µM
HCT-15
  TGI: 3.16 µM
MDA-MB-231
  TGI: 3.16 µM
OVCAR-3
  TGI: 3.98 µM
NCI-H226
  GI50: 2 µM
  TGI: 3.16 µM
PC-3
  GI50: 2 µM
  TGI: 5.01 µM
MDA-MB-468
  GI50: 2 µM
  TGI: 5.01 µM
OVCAR-4
  TGI: 25.1 µM
Malme-3M
  GI50: 2 µM
  TGI: 39.8 µM
SF-268
  TGI: 3.98 µM
SF-295
  TGI: 6.31 µM
SN12C
  TGI: 3.16 µM
UO-31
  TGI: 6.31 µM
MDA-MB-435
  TGI: 5.01 µM
RXF 393
  TGI: 5.01 µM
TK-10
  TGI: 10 µM
EKVX
  TGI: 19.9 µM

Reference: ChEMBL document CHEMBL3994622, “Design and synthesis of new RAF kinase-inhibiting antiproliferative quinoline derivatives. Part 2: Diarylurea derivatives” (Eur J Med Chem, 2017)
